Publication PMC12254379, “Artesunate induces ferroptosis in diffuse large B-cell lymphoma cells by targeting PRDX1 and PRDX2” (Cell Death & Disease, 2025)
pKd: −log10 of the molar value.

Key:
[1] = molecular target: T1, rhPRDX1 (PRDX1) (Homo sapiens, UniProt Q06830); assay: intrinsic fluorescence titration, Hill plot; format: binding
T1 construct: pET28a His-tagged, expressed in E. coli BL21, His-purified; homodimer in docking model; endogenous protein of U2932 lysate in the Biotin-ART pull-down
T1 sequence (Q06830 2-199): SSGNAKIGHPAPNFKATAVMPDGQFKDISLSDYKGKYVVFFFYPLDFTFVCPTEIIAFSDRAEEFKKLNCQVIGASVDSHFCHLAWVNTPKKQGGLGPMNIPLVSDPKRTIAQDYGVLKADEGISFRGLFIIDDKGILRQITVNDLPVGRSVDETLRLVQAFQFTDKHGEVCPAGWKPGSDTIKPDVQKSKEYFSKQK

[2] = molecular target: T2, rhPRDX2 (PRDX2) (Homo sapiens, UniProt P32119); assay: CD thermal denaturation; format: binding; settings: 10 μM protein, 1 mM ART, 20 mM Tris-HCl
T2 construct: pET28a His-tagged, expressed in E. coli Rosetta, His-purified; decamer in docking model; endogenous protein of U2932 lysate in the Biotin-ART pull-down
T2 sequence (P32119 2-198): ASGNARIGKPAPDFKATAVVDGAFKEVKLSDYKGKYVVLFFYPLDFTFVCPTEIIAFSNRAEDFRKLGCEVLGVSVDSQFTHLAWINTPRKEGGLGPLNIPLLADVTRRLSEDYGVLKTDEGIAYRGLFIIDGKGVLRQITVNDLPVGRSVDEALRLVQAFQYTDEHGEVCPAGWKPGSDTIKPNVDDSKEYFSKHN

[3] = molecular target: T2, rhPRDX2 (PRDX2); assay: intrinsic fluorescence titration, Hill plot; format: binding
[4] = molecular target: T1, rhPRDX1 (PRDX1); assay: H2O2 reduction assay, residual H2O2 kit; format: biochemical; settings: 20 μM protein, 30 min preincubation, 100 μM H2O2, RT

SMILES: C[C@H]1[C@H](OC(=O)CCC(=O)O)O[C@@H]2O[C@@]3(C)CC[C@H]4[C@H](C)CC[C@@H]1[C@@]24OO3 [Artesunate]
- pKd [1]: 5.22
- Tm (without to with ART) [2]: 57 to 61 °C
- pKd [3]: 5.28
- H2O2 reduction assay, residual H2O2 kit [4]: ART suppressed the peroxidase activity of rhPRDX1 and rhPRDX2 in a dose-dependent manner
